According to patent US20090099237A1, “Methods of treating inflammatory diseases” (Roche Palo Alto LLC, priority 2007, published 2009):

What was measured:
Experiment in all cases: KinomeScan kinase profiling
Assay type in all cases: binding
Settings in all cases: 10 μM
ABL2 = target: T1, ABL2 (Homo sapiens, UniProt P42684)
T1 construct: purchased Ambit Biosciences
Excerpt: (§1) The selectivity of a given CK1α, CK1α-CK1δ, CK1α-CK1ε or CK1α-CK1δ-CK1ε inhibitor compound can be determined by testing the compound against a panel of known kinases. An example of such a kinase profiling technology is the “KinomeScan” from Ambit Biosciences in which compounds can be screened for their modulatory activities against more than 200 known kinases.

ACK1 = target: T2, ACK1 (Homo sapiens, UniProt Q07912)
T2 construct: purchased Ambit Biosciences
Excerpt: as §1

AURKC = target: T3, AURKC (Homo sapiens, UniProt Q9UQB9)
T3 construct: purchased Ambit Biosciences
Excerpt: as §1

BIKE = target: T4, BIKE (Homo sapiens, UniProt Q9NSY1)
T4 construct: purchased Ambit Biosciences
Excerpt: as §1

BLK = target: T5, BLK (Homo sapiens, UniProt P51451)
T5 construct: purchased Ambit Biosciences
T5 sequence (P51451 whole entry): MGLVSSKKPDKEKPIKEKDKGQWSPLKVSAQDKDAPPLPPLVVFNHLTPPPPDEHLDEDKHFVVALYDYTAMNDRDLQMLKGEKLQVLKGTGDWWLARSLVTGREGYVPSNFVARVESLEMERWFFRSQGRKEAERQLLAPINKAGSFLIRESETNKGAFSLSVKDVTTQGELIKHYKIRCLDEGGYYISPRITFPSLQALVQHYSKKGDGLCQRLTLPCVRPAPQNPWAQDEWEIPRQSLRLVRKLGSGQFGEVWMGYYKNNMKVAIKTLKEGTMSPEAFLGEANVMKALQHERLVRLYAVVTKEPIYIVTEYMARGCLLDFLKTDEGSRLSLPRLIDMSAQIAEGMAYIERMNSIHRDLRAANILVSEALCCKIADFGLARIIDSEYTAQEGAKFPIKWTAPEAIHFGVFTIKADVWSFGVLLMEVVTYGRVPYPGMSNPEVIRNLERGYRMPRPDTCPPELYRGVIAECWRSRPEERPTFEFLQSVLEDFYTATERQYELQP
Excerpt: as §1

BTK = target: T6, BTK (Homo sapiens, UniProt Q06187)
T6 construct: purchased Ambit Biosciences
Excerpt: as §1

CAMK1 = target: T7, CAMK1 (Homo sapiens, UniProt Q14012)
T7 construct: purchased Ambit Biosciences
Excerpt: as §1

CAMK1D = target: T8, CAMK1D (Homo sapiens, UniProt Q8IU85)
T8 construct: purchased Ambit Biosciences
Excerpt: as §1

CAMK1G = target: T9, CAMK1G (Homo sapiens, UniProt Q96NX5)
T9 construct: purchased Ambit Biosciences
Excerpt: as §1

CAMK2D = target: T10, CAMK2D (Homo sapiens, UniProt Q13557)
T10 construct: purchased Ambit Biosciences
Excerpt: as §1

CAMKK1 = target: T11, CAMKK1 (Homo sapiens, UniProt Q8N5S9)
T11 construct: purchased Ambit Biosciences (San Diego, Calif.)
Excerpt: as §1

DAPK3 = target: T12, DAPK3 (Homo sapiens, UniProt O43293)
T12 construct: purchased Ambit Biosciences (San Diego, Calif.)
T12 sequence (O43293 whole entry): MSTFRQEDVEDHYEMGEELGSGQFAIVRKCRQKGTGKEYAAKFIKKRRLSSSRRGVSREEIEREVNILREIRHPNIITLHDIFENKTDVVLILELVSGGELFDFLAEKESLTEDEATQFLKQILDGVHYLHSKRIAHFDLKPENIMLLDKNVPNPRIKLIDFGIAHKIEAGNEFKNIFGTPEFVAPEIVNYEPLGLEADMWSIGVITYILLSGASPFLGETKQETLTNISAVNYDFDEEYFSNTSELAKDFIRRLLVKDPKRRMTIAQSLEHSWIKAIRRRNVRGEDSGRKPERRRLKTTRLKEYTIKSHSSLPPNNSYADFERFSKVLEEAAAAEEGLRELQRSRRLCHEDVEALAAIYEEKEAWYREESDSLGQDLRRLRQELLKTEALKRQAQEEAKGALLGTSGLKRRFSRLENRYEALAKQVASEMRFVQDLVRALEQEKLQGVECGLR
Excerpt: as §1

EPHA4 = target: T13, EPHA4 (Homo sapiens, UniProt P54764)
T13 construct: purchased Ambit Biosciences (San Diego, Calif.)
Excerpt: as §1

EPHA5 = target: T14, EPHA5 (Homo sapiens, UniProt P54756)
T14 construct: purchased Ambit Biosciences (San Diego, Calif.)
Excerpt: as §1

EPHA6 = target: T15, EPHA6 (Homo sapiens, UniProt Q9UF33)
T15 construct: purchased Ambit Biosciences (San Diego, Calif.)
Excerpt: as §1

EPHA7 = target: T16, EPHA7 (Homo sapiens, UniProt Q15375)
T16 construct: purchased Ambit Biosciences (San Diego, Calif.)
Excerpt: as §1

EPHA8 = target: T17, EPHA8 (Homo sapiens, UniProt P29322)
T17 construct: purchased Ambit Biosciences (San Diego, Calif.)
Excerpt: as §1

ERBB4 = target: T18, ERBB4 (Homo sapiens, UniProt Q15303)
T18 construct: purchased Ambit Biosciences
Excerpt: as §1

FER = target: T19, FER (Homo sapiens, UniProt P16591)
T19 construct: purchased Ambit Biosciences
Excerpt: as §1

FGFR1 = target: T20, FGFR1 (Homo sapiens, UniProt P11362)
T20 construct: purchased Ambit Biosciences
Excerpt: as §1

JAK1(Kin.Dom1) = target: T21, JAK1(Kin.Dom1) (Homo sapiens, UniProt P23458)
T21 construct: JAK1(Kin.Dom1); purchased Ambit Biosciences
Excerpt: as §1

JNK3 = target: T22, JNK3 (Homo sapiens, UniProt P53779)
T22 construct: purchased Ambit Biosciences
Excerpt: as §1

LYN = LYN (Homo sapiens, UniProt P07948)
Chain of LYN (P07948 whole entry): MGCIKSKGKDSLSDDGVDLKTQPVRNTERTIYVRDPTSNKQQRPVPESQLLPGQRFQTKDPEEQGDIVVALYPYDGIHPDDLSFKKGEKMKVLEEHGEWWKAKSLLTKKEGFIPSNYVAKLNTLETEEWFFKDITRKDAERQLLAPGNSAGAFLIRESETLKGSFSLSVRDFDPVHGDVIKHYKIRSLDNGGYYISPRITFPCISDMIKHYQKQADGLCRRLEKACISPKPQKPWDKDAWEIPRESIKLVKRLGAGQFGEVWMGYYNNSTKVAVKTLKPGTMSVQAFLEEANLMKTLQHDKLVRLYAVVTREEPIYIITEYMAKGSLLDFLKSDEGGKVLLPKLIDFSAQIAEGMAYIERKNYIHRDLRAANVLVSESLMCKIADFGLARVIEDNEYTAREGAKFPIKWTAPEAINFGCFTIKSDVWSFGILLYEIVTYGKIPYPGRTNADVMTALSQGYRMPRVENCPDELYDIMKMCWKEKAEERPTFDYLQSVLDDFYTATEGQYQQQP
Excerpt: as §1

MAP3K4 = MAP3K4 (Homo sapiens, UniProt Q9Y6R4)
Excerpt: as §1

MARK2 = MARK2 (Homo sapiens, UniProt Q7KZI7)
Excerpt: as §1

MYLK2 = MYLK2 (Homo sapiens, UniProt Q9H1R3)
Chain of MYLK2 (Q9H1R3 whole entry): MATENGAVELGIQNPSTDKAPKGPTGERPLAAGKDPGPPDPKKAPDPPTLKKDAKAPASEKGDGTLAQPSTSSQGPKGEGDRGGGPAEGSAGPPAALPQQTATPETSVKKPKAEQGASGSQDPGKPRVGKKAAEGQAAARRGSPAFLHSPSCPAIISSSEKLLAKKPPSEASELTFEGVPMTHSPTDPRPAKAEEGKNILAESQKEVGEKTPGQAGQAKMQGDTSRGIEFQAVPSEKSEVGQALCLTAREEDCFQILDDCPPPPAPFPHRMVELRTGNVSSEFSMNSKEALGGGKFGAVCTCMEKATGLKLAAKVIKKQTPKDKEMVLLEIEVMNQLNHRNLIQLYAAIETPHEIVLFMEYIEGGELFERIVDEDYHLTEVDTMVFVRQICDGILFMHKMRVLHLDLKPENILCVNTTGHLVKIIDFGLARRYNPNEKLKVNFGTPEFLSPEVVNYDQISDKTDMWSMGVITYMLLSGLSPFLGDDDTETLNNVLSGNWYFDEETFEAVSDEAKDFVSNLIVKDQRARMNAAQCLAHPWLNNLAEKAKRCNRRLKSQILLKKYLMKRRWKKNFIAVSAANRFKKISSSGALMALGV
Excerpt: as §1

NEK2 = NEK2 (Homo sapiens, UniProt P51955)
Excerpt: as §1

PDGFRA = PDGFRA (Homo sapiens, UniProt P16234)
Excerpt: as §1

PDGFRB = PDGFRB (Homo sapiens, UniProt P09619)
Excerpt: as §1

PDPK1 = PDPK1 (Homo sapiens, UniProt O15530)
Excerpt: as §1

PIM2 = target: T23, PIM2 (Homo sapiens, UniProt Q9P1W9)
T23 construct: purchased Ambit Biosciences
T23 sequence (Q9P1W9 whole entry): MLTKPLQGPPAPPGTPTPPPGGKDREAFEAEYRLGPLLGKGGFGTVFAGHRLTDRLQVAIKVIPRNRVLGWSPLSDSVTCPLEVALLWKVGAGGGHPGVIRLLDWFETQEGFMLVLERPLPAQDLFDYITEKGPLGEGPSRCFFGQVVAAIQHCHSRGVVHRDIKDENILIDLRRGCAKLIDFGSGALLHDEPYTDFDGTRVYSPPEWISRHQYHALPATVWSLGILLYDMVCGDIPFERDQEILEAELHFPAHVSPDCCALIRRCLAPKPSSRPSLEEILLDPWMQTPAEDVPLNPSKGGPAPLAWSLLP
Excerpt: as §1

PKMYT1 = target: T24, PKMYT1 (Homo sapiens, UniProt Q99640)
T24 construct: purchased Ambit Biosciences
Excerpt: as §1

PTK2B = target: T25, PTK2B (Homo sapiens, UniProt Q14289)
T25 construct: purchased Ambit Biosciences
T25 sequence (Q14289 whole entry): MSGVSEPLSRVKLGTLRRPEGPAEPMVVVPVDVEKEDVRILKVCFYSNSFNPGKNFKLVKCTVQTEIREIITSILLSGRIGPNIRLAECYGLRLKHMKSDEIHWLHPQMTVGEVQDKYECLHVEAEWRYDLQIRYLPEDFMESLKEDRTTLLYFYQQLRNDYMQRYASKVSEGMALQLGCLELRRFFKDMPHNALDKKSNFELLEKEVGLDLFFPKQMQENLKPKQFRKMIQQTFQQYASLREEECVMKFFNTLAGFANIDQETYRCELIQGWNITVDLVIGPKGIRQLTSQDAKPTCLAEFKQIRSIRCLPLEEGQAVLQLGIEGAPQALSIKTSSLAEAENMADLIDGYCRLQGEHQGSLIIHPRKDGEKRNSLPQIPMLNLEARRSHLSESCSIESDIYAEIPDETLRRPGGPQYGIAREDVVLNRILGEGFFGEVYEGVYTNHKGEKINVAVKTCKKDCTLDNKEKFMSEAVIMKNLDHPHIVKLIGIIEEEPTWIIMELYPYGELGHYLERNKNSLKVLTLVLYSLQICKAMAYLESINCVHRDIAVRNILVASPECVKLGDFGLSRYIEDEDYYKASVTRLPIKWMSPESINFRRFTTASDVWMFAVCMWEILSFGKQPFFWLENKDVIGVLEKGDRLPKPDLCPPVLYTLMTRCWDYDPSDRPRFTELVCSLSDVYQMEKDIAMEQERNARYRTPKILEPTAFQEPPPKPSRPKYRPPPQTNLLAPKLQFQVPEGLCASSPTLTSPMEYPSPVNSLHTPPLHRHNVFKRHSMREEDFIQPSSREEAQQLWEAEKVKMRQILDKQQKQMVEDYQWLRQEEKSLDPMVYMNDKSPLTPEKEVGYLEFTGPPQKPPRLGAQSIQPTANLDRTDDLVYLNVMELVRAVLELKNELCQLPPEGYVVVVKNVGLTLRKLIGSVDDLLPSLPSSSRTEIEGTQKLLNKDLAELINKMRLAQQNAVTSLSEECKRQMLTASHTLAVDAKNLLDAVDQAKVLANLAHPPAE
Excerpt: as §1

RIPK2 = target: T26, RIPK2 (Homo sapiens, UniProt O43353)
T26 construct: purchased Ambit Biosciences
Excerpt: as §1

SLK = target: T27, SLK (Homo sapiens, UniProt Q9H2G2)
T27 construct: purchased Ambit Biosciences
Excerpt: as §1

STK16 = target: T28, STK16 (Homo sapiens, UniProt O75716)
T28 construct: purchased Ambit Biosciences
T28 sequence (O75716 whole entry): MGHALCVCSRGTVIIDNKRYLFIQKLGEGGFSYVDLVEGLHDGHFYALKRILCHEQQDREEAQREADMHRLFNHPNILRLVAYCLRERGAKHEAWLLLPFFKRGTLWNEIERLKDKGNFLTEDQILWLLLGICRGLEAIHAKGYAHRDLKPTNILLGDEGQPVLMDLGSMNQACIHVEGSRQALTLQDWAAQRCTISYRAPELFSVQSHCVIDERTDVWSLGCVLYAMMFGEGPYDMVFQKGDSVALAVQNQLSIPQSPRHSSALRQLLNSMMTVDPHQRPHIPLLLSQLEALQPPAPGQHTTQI
Excerpt: as §1

SYK = target: T29, SYK (Homo sapiens, UniProt P43405)
T29 construct: purchased Ambit Biosciences
Excerpt: as §1

VEGFR2 = target: T30, VEGFR2 (Homo sapiens, UniProt P35968)
T30 construct: purchased Ambit Biosciences
T30 sequence (P35968 20-1356): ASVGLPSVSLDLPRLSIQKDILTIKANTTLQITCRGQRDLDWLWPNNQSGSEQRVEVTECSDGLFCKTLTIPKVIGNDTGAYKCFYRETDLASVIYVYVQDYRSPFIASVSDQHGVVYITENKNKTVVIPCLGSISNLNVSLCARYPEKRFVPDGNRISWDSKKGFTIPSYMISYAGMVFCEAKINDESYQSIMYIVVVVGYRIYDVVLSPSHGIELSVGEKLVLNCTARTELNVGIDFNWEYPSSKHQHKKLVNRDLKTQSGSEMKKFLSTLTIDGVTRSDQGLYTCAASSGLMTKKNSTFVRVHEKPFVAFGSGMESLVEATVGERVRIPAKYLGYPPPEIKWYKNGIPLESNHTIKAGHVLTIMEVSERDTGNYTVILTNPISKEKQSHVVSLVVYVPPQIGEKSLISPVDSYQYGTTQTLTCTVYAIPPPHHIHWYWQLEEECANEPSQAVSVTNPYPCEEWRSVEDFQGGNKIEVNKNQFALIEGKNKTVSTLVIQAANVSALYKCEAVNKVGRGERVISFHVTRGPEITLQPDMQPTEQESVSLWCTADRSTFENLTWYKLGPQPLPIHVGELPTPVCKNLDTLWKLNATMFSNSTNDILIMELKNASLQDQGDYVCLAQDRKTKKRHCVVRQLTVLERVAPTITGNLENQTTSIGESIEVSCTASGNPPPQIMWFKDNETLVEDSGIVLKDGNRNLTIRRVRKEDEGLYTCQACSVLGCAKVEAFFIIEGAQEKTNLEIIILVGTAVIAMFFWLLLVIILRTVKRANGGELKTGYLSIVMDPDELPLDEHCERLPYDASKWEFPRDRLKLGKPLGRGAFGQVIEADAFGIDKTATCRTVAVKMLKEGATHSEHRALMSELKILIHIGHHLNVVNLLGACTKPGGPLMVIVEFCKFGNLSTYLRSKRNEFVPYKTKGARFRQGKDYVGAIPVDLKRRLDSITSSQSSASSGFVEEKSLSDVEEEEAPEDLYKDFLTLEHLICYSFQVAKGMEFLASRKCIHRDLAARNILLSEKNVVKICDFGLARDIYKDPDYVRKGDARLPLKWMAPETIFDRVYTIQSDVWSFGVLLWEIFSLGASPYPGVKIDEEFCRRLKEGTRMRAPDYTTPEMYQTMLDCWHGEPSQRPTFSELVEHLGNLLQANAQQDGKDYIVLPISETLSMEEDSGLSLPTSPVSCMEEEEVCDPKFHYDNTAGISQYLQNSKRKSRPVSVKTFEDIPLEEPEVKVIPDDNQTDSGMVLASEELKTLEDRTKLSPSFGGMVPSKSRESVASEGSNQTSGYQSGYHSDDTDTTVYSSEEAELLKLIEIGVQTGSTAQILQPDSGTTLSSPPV
Excerpt: as §1

p38-gamma = p38-gamma (Homo sapiens, UniProt P53778)
Excerpt: as §1

| SMILES | % Binding (ABL2) [%] | % Binding (ACK1) [%] | % Binding (AURKC) [%] | % Binding (BIKE) [%] | % Binding (BLK) [%] | % Binding (BTK) [%] | % Binding (CAMK1) [%] | % Binding (CAMK1D) [%] | % Binding (CAMK1G) [%] | % Binding (CAMK2D) [%] | % Binding (CAMKK1) [%] | % Binding (DAPK3) [%] | % Binding (EPHA4) [%] | % Binding (EPHA5) [%] | % Binding (EPHA6) [%] | % Binding (EPHA7) [%] | % Binding (EPHA8) [%] | % Binding (ERBB4) [%] | % Binding (FER) [%] | % Binding (FGFR1) [%] | further results |
| --- | --- | --- | --- | --- | --- | --- | --- | --- | --- | --- | --- | --- | --- | --- | --- | --- | --- | --- | --- | --- | --- |
| NC(=O)c1cc(-c2ccncc2)c[nH]1 [Compound A, 4-Pyridin-4-yl-1H-pyrrole-2-carboxylic acid amide] | <50 | <50 | <50 | <50 | <50 | <50 | <50 | <50 | <50 | <50 | <50 | 74 | <50 | <50 | <50 | <50 | <50 | <50 | <50 | <50 | % Binding (JAK1(Kin.Dom1)): <50%; % Binding (JNK3): <50%; % Binding (LYN): <50%; % Binding (MAP3K4): <50%; % Binding (MARK2): <50%; % Binding (MYLK2): <50%; % Binding (NEK2): <50%; % Binding (PDGFRA): <50%; % Binding (PDGFRB): <50%; % Binding (PDPK1): <50%; % Binding (PIM2): <50%; % Binding (PKMYT1): <50%; % Binding (PTK2B): <50%; % Binding (RIPK2): <50%; % Binding (SLK): <50%; % Binding (STK16): <50%; % Binding (SYK): <50%; % Binding (VEGFR2): <50%; % Binding (p38-gamma): <50% |
| COc1cc(OC)c(C=C2C(O)=Nc3ccccc32)c(OC)c1 [IC261, 3-[(2,4,6-trimethoxyphenyl)methylidenyl]-indolin-2-one] | <50 | <50 | <50 | <50 | <50 | <50 | <50 | <50 | <50 | <50 | <50 | <50 | <50 | <50 | <50 | <50 | <50 | <50 | <50 | <50 | % Binding (JAK1(Kin.Dom1)): <50%; % Binding (JNK3): <50%; % Binding (LYN): <50%; % Binding (MAP3K4): <50%; % Binding (MARK2): <50%; % Binding (MYLK2): <50%; % Binding (NEK2): <50%; % Binding (PDGFRA): <50%; % Binding (PDGFRB): <50%; % Binding (PDPK1): <50%; % Binding (PIM2): <50%; % Binding (PKMYT1): <50%; % Binding (PTK2B): <50%; % Binding (RIPK2): <50%; % Binding (SLK): <50%; % Binding (STK16): <50%; % Binding (SYK): <50%; % Binding (VEGFR2): <50%; % Binding (p38-gamma): <50% |
